In general, IC50 refers to the concentration that inhibits the measured activity by half. The term pEC50 denotes the EC50 on a negative log10 scale, so that one unit is a factor of ten. Usually pIC50 stands for −log10 of the IC50, conventionally taken in molar units. By inhibition is commonly meant the drop in the measured response relative to a control, in per cent.

IC50, EC50 and inhibition data for 1 molecule are collected here from US20140212381A1, “MACROCYCLES” (Scynexis, Inc., priority 2012, published 2014).

pEC50, pIC50: −log10 of the molar value. In brackets after ≈: the same amount, converted by molar mass. Numbered stars: 1 amine (or outer) side, 2 acyl side, 3 side chain; on linkers, the order of the positions; unused ones are H or OH. Square brackets hold non-standard residues; d marks the D form. Peptide text beside a SMILES is read from it. ξ: configuration not given here. X1 = CN(C)C1(CS[C@H](C(=O)[*:2])N(C)[*:1])CCC1; ξNMeBmt = C/C=C/C[C@@H](C)[C@@H](O)C(NC)C(=O)O; X2 = CC(C)[C@H](C(=O)[*:2])N(Cc1ccccc1)[*:1]; NMeL = CN[C@@H](CC(C)C)C(=O)O; dNMeL = CN[C@H](CC(C)C)C(=O)O; dNMeV = CN[C@@H](C(=O)O)C(C)C; dAbu = CC[C@@H](N)C(=O)O

Test [1] concerns IL-2 production by stimulated T Cells (Jurkat cells). The experiment in a line: Inhibition of IL-2 production in stimulated Jurkat cells. Conditions: Homo sapiens, Jurkat, read-out: IL-2 inhibition IC50. It counts as cell-based. The method, then: Compounds of formula (I) were tested for their inhibition of IL-2 production by stimulated T Cells, using Jurkat cells with anti-CD3 and anti-CD28 co-stimulation. […] Cyclosporine A (control) was also run at a 0.5-Log 9-point titration. starting at 500 ng/mL. All compounds to be tested were dissolved in dimethyl sulfoxide. Cytotoxicity was evaluated with parallel Alamar Blue plates. Jurkat cells were seeded at […] per well in 200 μL growth media in a 96-well plate. Cells were cultured in complete RPMI medium supplemented with 10% fetal bovine serum with one hour incubation at 37° C. with 5% carbon dioxide
PMA and PHA were diluted in complete media to a final concentration of 1 ng/mL and 5 μg/mL respectively. The diluted compounds were mixed 1:1 and 25 μL of the mixture was added per well. The plates were incubated overnight at 37° C. in 5% CO2.
The following day one hundred microliters of cell culture supernatant were transferred from each well to a non-sterile V-bottom plate and stored plate at −80° C. prior to analysis. Determination of IL-2 concentrations in the supernatant was performed using the Pierce Human IL-2 Colorimetric ELISA kit as per the manufacturer's directions (Pierce, #EH2IL25). Cell culture supernatants were diluted with an equal volume of complete RPMI (25 μL sample+25 μL RPMI per well) prior to testing in order to remain in linear range of the assay.
Duplicate wells containing cells in the absence of PMA/PHA and test drug (background) and duplicate wells containing cells stimulated with PMA/PHA in the absence of test drug (100% production of IL-2) were included as controls. Activated cells treated with DMSO were used to normalize IL-2 values. IL-2 standard curves were generated using a 4-parameter curve fit in SoftMax Pro software from Molecular Devices.
Two independent assays were performed to evaluate the effect of cyclosporine A and representative compounds on IL-2 production in PMA/PHA stimulated Jurkat cells (mean values were calculated).

The test system of test [2] is HCV RNA replicon, Genotype 1b. The experiment in a line: HCV replicon assay, 1b replicon (LUC). Conditions: Hepatitis C virus, GETYPE1B, in Homo sapiens, 72 h, read-out: mean EC50, Genotype 1b. A general note: Replicon systems follow genome replication, usually without infectious particles.
Another test addresses Cyclophilin B (Homo sapiens, UniProt P23284). Kind of test: Cyclophilin binding, competitive ELISA. Conditions: human recombinant cyclophilin. An excerpt:
Plates were washed as described above. […] Plates were washed as described above.
A general note: ELISA stands for enzyme-linked immunosorbent assay.

Another test relates to Influenza B (B/Allen/45). The experiment in a line: Anti-influenza virus cytoprotection assay in MDCK cells. The format is cell-based. Conditions: read-out: levels of inhibition.
The subject of test [3] is Influenza A H1N1 (A/CA/05/09). The test is described as above. The conditions noted are these: read-out: levels of inhibition. The format is cell-based.
For test [4], the system named is Influenza A H3N2 (A/HK/8/68). The test is described as above. The format is cell-based. The conditions noted are these: read-out: levels of inhibition.

Chain of Cyclophilin B (P23284 34-216): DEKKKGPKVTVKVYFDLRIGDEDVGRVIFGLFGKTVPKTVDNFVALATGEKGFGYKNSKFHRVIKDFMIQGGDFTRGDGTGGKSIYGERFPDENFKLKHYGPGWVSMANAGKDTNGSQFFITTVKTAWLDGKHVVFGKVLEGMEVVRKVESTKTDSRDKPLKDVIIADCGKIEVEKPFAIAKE

`C/C=C/C[C@@H](C)[C@@H](O)C1C(=O)N[C@H](CC)C(=O)N(C)[C@H](SCC2(N(C)C)CCC2)C(=O)N(C)[C@@H](CC(C)C)C(=O)N(Cc2ccccc2)[C@H](C(C)C)C(=O)N(C)[C@H](CC(C)C)C(=O)N[C@H](C)C(=O)N[C@@H](C)C(=O)N(C)[C@H](CC(C)C)C(=O)N(C)[C@H](CC(C)C)C(=O)N(C)[C@H](C(C)C)C(=O)N1C` (stereo partly drawn) [Compound F] (cyclo(A[dNMeL][dNMeL][dNMeV][ξNMeBmt][dAbu][X1][NMeL][X2][dNMeL][dA])): the concentration for half-maximal inhibition (IC50) in test [1] was found to be 0.452 µg/mL (≈ 0.315 µM). Also, the pEC50 in test [2] was 6.28. Besides, at Cyclophilin B, the negative-log IC50 (pIC50) was 7.37. In addition, the inhibition at 10 µM in the test with Influenza B (B/Allen/45) is 15%; in test [3], 98%; in test [4] it was 68%.
